The Kinase Knowledgebase extract (Sharma et al. 2016)

molecular target: PIK3CG (human) (UniProt P48736); experiment: Inhibition of PIK3CG Kinase Activity
Sequence (P48736 whole entry, looked up): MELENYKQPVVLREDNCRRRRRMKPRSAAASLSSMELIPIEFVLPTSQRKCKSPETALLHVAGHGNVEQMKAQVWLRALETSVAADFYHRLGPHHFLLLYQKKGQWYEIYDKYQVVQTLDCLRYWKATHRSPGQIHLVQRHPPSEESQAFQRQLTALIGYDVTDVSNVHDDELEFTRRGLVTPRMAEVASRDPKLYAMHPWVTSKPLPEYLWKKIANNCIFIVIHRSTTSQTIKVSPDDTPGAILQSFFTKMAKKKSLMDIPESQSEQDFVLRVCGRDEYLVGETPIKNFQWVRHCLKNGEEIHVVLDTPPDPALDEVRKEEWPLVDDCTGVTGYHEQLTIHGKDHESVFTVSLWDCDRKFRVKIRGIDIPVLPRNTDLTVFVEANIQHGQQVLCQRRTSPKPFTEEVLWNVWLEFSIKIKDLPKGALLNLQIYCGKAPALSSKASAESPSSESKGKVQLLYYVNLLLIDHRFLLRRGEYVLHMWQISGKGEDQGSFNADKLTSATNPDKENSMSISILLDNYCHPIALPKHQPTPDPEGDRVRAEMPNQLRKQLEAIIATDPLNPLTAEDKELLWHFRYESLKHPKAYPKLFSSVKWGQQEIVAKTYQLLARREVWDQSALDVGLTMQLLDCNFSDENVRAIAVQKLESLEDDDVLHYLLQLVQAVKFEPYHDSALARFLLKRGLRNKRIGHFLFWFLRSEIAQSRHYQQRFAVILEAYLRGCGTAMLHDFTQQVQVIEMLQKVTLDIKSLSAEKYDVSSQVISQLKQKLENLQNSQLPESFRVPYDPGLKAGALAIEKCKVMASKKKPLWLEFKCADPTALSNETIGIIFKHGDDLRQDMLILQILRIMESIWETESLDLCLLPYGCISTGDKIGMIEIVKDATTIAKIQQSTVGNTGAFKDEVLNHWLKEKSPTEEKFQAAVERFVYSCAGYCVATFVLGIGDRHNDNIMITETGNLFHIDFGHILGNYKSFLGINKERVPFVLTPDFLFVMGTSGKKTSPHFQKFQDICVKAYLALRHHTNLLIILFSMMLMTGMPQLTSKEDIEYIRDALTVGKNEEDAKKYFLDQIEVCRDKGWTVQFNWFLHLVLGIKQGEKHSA

| IC50 [nM] | Compound |
| --- | --- |
| < 600 | CCCN1CC[C@@H](NC(=O)c2ccc(-n3nc(C4CC4)c4c3-c3sc(NC(C)=O)nc3CC4)c(C)c2)C1 |
| < 600 | CC(=O)Nc1nc2c(s1)-c1c(c(C3CCC3)nn1-c1ccc(C(=O)NC3CCN(C)CC3)cc1Cl)CC2 |
| < 600 | CC(=O)Nc1nc2c(s1)-c1c(c(C3CC3)nn1-c1ccc(C(=O)N[C@@H]3CCN(C4CCCCC4)C3)c(Cl)c1)CC2 |
| < 600 | CC(=O)Nc1nc2c(s1)-c1c(c(C3CC3)nn1-c1ccc(C(=O)N[C@@H]3CCN(CC4CCCC4)C3)c(C)c1)CC2 |
| < 600 | CC(=O)Nc1nc2c(s1)-c1c(c(C3CC3)nn1-c1ccc(C(=O)N(C)[C@H]3CC[C@@H](N4CCCC4)CC3)c(Cl)c1)CC2 |
| < 600 | CC(=O)Nc1nc2c(s1)-c1c(c(C3CC3)nn1-c1ccc(C(=O)N[C@H]3CCN(C4CCCC4)C3)c(Cl)c1)CC2 |
| < 600 | CCCN1CCC(NC(=O)c2ccc(-n3nc(C4CCCC4)c4c3-c3sc(NC(C)=O)nc3CC4)c(Cl)c2)CC1 |
| < 600 | CC(=O)Nc1nc2c(s1)-c1c(c(C3CC3)nn1-c1ccc(C(=O)NCC3CCN(C4CCCC4)CC3)c(Cl)c1)CC2 |
| < 600 | CC(=O)Nc1nc2c(s1)-c1c(c(C3CC3)nn1-c1ccc(C(=O)N[C@H]3CC[C@@H](N4CCCC4)CC3)c(C)c1)CC2 |
| < 600 | CC(=O)Nc1nc2c(s1)-c1c(c(C3CC3)nn1-c1ccc(C(=O)NC3CCN(CC4CCCCC4)CC3)c(C)c1)CC2 |
| < 600 | CC(=O)Nc1nc2c(s1)-c1c(c(C3CC3)nn1-c1ccc(C(=O)N3CCN(C4CCCC4)CC3)c(Cl)c1)CC2 |
| < 600 | CC(=O)Nc1nc2c(s1)-c1c(c(C3CC3)nn1-c1ccc(C(=O)N(C)C)cc1Cl)CC2 |
| < 600 | CC(=O)Nc1nc2c(s1)-c1c(c(C3CCC3)nn1-c1ccc(C(=O)N(C)[C@H]3CC[C@@H](N4CCCC4)CC3)cc1Cl)CC2 |
| < 600 | CC(=O)Nc1nc2c(s1)-c1c(c(C3CC3)nn1-c1ccc(NC(=O)[C@H]3CC[C@@H](N4CCCC4)CC3)cc1Cl)CC2 |
| < 600 | CCN(CC)CCN1CCN(C(=O)c2ccc(-n3nc(C4CC4)c4c3-c3sc(NC(C)=O)nc3CC4)cc2Cl)CC1 |
| < 600 | CC(=O)Nc1nc2c(s1)-c1c(c(C3CC3)nn1-c1ccc(C(=O)N3CCC(N(C)C4CCCC4)CC3)c(C)c1)CC2 |
| < 600 | CC(=O)Nc1nc2c(s1)-c1c(c(C3CC3)nn1-c1ccc(C(=O)N(C)[C@H]3CC[C@@H](N(C)CC4CC4)CC3)cc1F)CC2 |
| < 600 | CC(=O)Nc1nc2c(s1)-c1c(c(C3CC3)nn1-c1ccc(C(=O)N[C@H]3CC[C@@H](N4CCOCC4)CC3)c(C)c1)CC2 |
| < 600 | CCCN1CC[C@@H](NC(=O)c2ccc(-n3nc(C4CC4)c4c3-c3sc(NC(C)=O)nc3CC4)cc2F)C1 |
| < 600 | CC(=O)Nc1nc2c(s1)-c1c(c(C3CC3)nn1-c1ccc(C(=O)N(C)[C@H]3CC[C@@H](N4CCCC4)CC3)cc1C)CC2 |
| < 600 | CC(=O)Nc1nc2c(s1)-c1c(c(C3CC3)nn1-c1ccc(C(N)=O)cc1Cl)CC2 |
| < 600 | CC(=O)Nc1nc2c(s1)-c1c(c(C3CC3)nn1-c1ccc(C(=O)N(C)[C@H]3CC[C@@H](N4CCCC4)CC3)cc1F)CC2 |
| < 600 | CC(=O)Nc1nc2c(s1)-c1c(c(C3(C)CC3)nn1-c1ccc(C(=O)NC3CCN(CC4CCCC4)CC3)cc1Cl)CC2 |
| < 600 | CCCN1CCC(NC(=O)c2ccc(-n3nc(C4(C)CC4)c4c3-c3sc(NC(C)=O)nc3CC4)c(Cl)c2)CC1 |
| < 600 | CC(=O)Nc1nc2c(s1)-c1c(c(C3CC3)nn1C1CCC(C(=O)NC3CCN(CC4CCCC4)CC3)CC1)CC2 (configuration not stated) |
| < 600 | CC(=O)Nc1nc2c(s1)-c1c(c(C3CC3)nn1-c1ccc(C(=O)N(C)C3CCC(N4CCCCC4)CC3)c(F)c1)CC2 (configuration not stated) |

| IC50 [nM] | Compound |
| --- | --- |
| < 600 | CC(=O)Nc1nc2c(s1)-c1c(c(C3CC3)nn1-c1ccc(C(=O)N(C)[C@H]3CCN(C4CCCCC4)C3)c(Cl)c1)CC2 |
| < 600 | CC(=O)Nc1nc2c(s1)-c1c(c(C3CC3)nn1-c1ccc(C(=O)N(C)C3CCC(N4CCCC4)CC3)cc1Cl)CC2 (configuration not stated) |
| < 600 | CC(=O)Nc1nc2c(s1)-c1c(c(C3CC3)nn1-c1ccc(C(=O)NC3CCN(CC4CCCCC4)CC3)cc1Cl)CC2 |
| < 600 | CC(=O)Nc1nc2c(s1)-c1c(c(C3CC3)nn1-c1ccc(C(=O)NC3CCN(CC4CCCC4)CC3)cc1F)CC2 |
| < 600 | CC(=O)Nc1nc2c(s1)-c1c(c(C3CC3)nn1-c1ccc(C(=O)NC3CCN(CC4CCCC4)CC3)c(C)c1)CC2 |
| < 600 | CC(=O)Nc1nc2c(s1)-c1c(c(C3CC3)nn1-c1ccc(C(=O)N[C@@H]3CCN(C4CCCC4)C3)c(F)c1)CC2 |
| < 600 | CC(=O)Nc1nc2c(s1)-c1c(c(C3CC3)nn1-c1ccc(C(=O)N3CC[C@H](CN4CCCC4)C3)c(Cl)c1)CC2 |
| < 600 | CNC(=O)C1CCC(n2nc(C3CC3)c3c2-c2sc(NC(C)=O)nc2CC3)CC1 (configuration not stated) |
| < 600 | CC(=O)Nc1nc2c(s1)-c1c(c(C3(C)CC3)nn1-c1ccc(C(=O)NC3CCN(C4CCOCC4)CC3)cc1Cl)CC2 |
| < 600 | CC(=O)Nc1nc2c(s1)-c1c(c(C3CC3)nn1-c1ccc(C(=O)N[C@@H]3CCN(C4CCCCC4)C3)c(C)c1)CC2 |
| < 600 | COc1cc(-n2nc(C3CC3)c3c2-c2sc(NC(C)=O)nc2CC3)ccc1C(=O)NC1CCN(C2CCCC2)CC1 |
| < 600 | CNc1ccc(-n2nc(C3CC3)c3c2-c2sc(NC(C)=O)nc2CC3)c(Cl)c1 |
| < 600 | CC(=O)Nc1nc2c(s1)-c1c(c(C3CCCC3)nn1-c1ccc(C(=O)NC3CCN(C(C)C)CC3)cc1Cl)CC2 |
| < 600 | CC(=O)Nc1nc2c(s1)-c1c(c(C3CC3)nn1-c1ccc(C(=O)N[C@H]3CC[C@@H](N4CCCC4)CC3)c(F)c1)CC2 |
| < 600 | CCCN1CCC(C(=O)N2CCC(n3nc(C4CC4)c4c3-c3sc(NC(C)=O)nc3CC4)CC2)CC1 |
| < 600 | CC(=O)Nc1nc2c(s1)-c1c(c(C3CC3)nn1-c1ccc(C(=O)N[C@H]3CC[C@@H](N4CCOCC4)CC3)c(Cl)c1)CC2 |
| < 600 | CC(=O)Nc1nc2c(s1)-c1c(c(C3CC3)nn1C1CCN(C(=O)C3CCN(C4CCCC4)CC3)CC1)CC2 |
| < 600 | CC(=O)Nc1nc2c(s1)-c1c(c(C3CC3)nn1-c1ccc(C(=O)N(C)CC3CCN(C4CCCC4)CC3)c(Cl)c1)CC2 |
| < 600 | CCN(C(=O)c1ccc(-n2nc(C3CC3)c3c2-c2sc(NC(C)=O)nc2CC3)cc1C)[C@H]1CC[C@@H](N2CCCC2)CC1 |
| < 600 | CC(=O)Nc1nc2c(s1)-c1c(c(C3CC3)nn1-c1ccc(C(=O)NCc3ccncc3)cc1Cl)CC2 |
| < 600 | CC(=O)Nc1nc2c(s1)-c1c(c(C3CC3)nn1-c1ccc(C(=O)N(C)[C@@H]3CCN(C4CCCC4)C3)c(F)c1)CC2 |
| < 600 | CC(=O)Nc1nc2c(s1)-c1c(c(C3CC3)nn1-c1ccc(C(=O)NC3CCN(CC4CCCC4)CC3)c(Cl)c1)CC2 |
| < 600 | COc1cc(-n2nc(C3CC3)c3c2-c2sc(NC(C)=O)nc2CC3)ccc1C(=O)N1CCC(N(C)C2CCCC2)CC1 |
| < 600 | CC(=O)Nc1nc2c(s1)-c1c(c(C3CC3)nn1C1CCN(C(=O)N3CCN(C4CCCC4)CC3)CC1)CC2 |
| < 600 | CC(=O)Nc1nc2c(s1)-c1c(c(C3CC3)nn1-c1ccc(C(=O)N[C@H]3CC[C@H](C(N)=O)CC3)cc1Cl)CC2 |
| < 600 | CC(=O)Nc1nc2c(s1)-c1c(c(C3CC3)nn1-c1ccc(C(=O)N3CCC(N(C)C4CCCC4)CC3)cc1Cl)CC2 |
